Patent publication US4067997A, “Synergistic microbecidal composition and method” (priority 1976, dated 1978)
In brackets after ≈: the same amount, converted by molar mass. Structures can show the parent of a compound that is named as a salt. Where two headings read alike, the source gives them in different places.

Experiments:
Format in all cases: cell-based
[1] = system: nine gram-positive organisms and the yeast/fungus Candida; test: MIC, broth dilution, over all organisms (Examples I/II); conditions: for MIC: read-out: MIC range
Description: In order to establish comparative bactericidal and fungicidal results with homologous fatty acids, a series of experiments was performed with thirty straight-chain fatty acids and derivatives thereof. Eight different gram-negative and twelve different gram-positive organisms, representing a very broad spectrum of organisms, were used in these experiments including the fungus Candida (a yeast). Additionally, fatty acids were chosen to show the effects of saturation versus unsaturation, in the fatty acid claim. Standard solutions of the fatty acids and their derivatives were prepared by first dissolving the weighed compounds in 1 to 2 ml of 95% ethanol and immediately pouring this solution into 200 ml of Tripticase Soy Broth. These lipid compounds which are insoluble in water and broth precipitated into very small crystals or droplets. The tubes containing the suspension were warmed to approximately 70° C and were then placed in an ultrasonic tank for further solubilization of the lipid derivatives.
Standard solutions (or suspensions) at 1,000 μg/ml were twofold serially diluted with additional broth to a concentration of 125 μg/ml. A 4-ml amount of each dilution was then quickly, and with constant agitation, dispensed into appropriately labeled screw-capped glass tubes (16 by 125 mm). The tubes were sterilized with steam at 15 psi for 15 minutes. After sterilization, all tubes were cooled and incubated overnight at 35° C to insure sterility.
All compounds were compared on a molar (micromoles/milliliter) rather than on a mass basis. In the following lists of organisms used, those followed by a parenthetical number are registered with the American Type Culture Collection (ATCC); the remainder were isolates from Providence Hospital or Northland Laboratory.
Staphylococcus aureus, S. epidermidis, beta-hemolytic streptococci (Group A and non-group A), group D streptococcus, Bacillus subtilis (6051), Sarcina lutea (9431), Micrococcus sp., Candida albicans, Nocardia asteroids (3308), Corynebacterium sp. (10700), and pneumococcus (63001).
One drop (0.04 ± 0.01 ml) of an 18-hr broth culture containing 10^7 and 10^9 organisms/ml was added to each dilution of the test compound, as well as to a tube of plain broth which served as the positive control. After inoculation, the contents of each tube were well mixed, and the tubes were incubated at 35° C in a 5% carbon dioxide + […] atmosphere.
The MIC is defined as the lowest concentration of compound at which no […] evidence of growth was observed when turbidity of the inoculated broth dilutions was compared with control tubes. […] Only a one-tube difference between the bactericidal and bacteriostatic concentrations was normally observed.
Table 5 presents a comparison of the C10 and C12 free acids and their glyceryl derivatives, and Table 6 gives the corresponding ranges of activity.
Standard solutions (1000 μg/ml) of three fatty acids and polyglycerol esters thereof were prepared as described in Example I. Also sucrose esters were prepared by transferring the weighed compounds (0.2 gm. dissolved in 1 ml absolute methanol) into 200 ml of sterile Trypticase Soy Broth (TSB). These standard solutions (1000 μg/ml) were twofold serially diluted with additional sterile broth to a concentration of 125 μg/ml. A 3.8 aliquot of each dilution was asceptically delivered into sterile screw-capped culture tubes. All tubes were incubated overnight at 36° C to insure sterility. The microorganisms used in this example were the same as those used in Example I.
The inoculum, 0.05 ml of an 13-24 hour TSB culture (approximately 10^9 organisms/ml) was asceptically delivered into all dilutions of the compounds, mixed well, and incubated at 36° C. […]

[2] = system: Saccharomyces cerevisiae; test: MIC on mass basis (Example V procedure); conditions: Saccharomyces cerevisiae, read-out: MIC
Description: (§1) The essential procedure of Example I was followed with a series of phenolic compounds, with the exception that the test method was conducted on a mass (μg/ml) basis rather than a molecular (mol/ml) basis of the foregoing tests, since the long established phenol-coeffecient test is on a mass rather than molecular basis. Additionally, a different but closely related group of organisms were used in this test, in order to give a complete representative span on gram-negative, gram-positive and fungus organisms. Additionally, the phenolic derivatives chosen for test purposes include a number of derivatives which are presently accepted by the FDA as food-grade phenolic microbicides.
(§2) The same procedure of Example V was repeated but with combinations of mono-laurin (GML).
(§3) The procedure of Example V was repeated with combinations of glycerol mono-laurin (GML) and ethylenediamine tetraacetic acid (EDTA) as the calcium salt and in combination with BHA.

[3] = system: Nocardia asteroides; test: MIC on mass basis (Example V procedure)
Description: as §1, §2, §3

[4] = system: Pseudomonas aeruginosa; test: MIC on mass basis (Example V procedure); conditions: Pseudomonas aeruginosa, read-out: MIC
Description: as §1, §2, §3

[5] = system: Candida albicans; test: MIC on mass basis (Example V procedure); conditions: Candida albicans, read-out: MIC
Description: as §1, §2, §3

[6] = system: Staphylococcus aureus; test: MIC on mass basis (Example V procedure); conditions: Staphylococcus aureus, read-out: MIC
Description: as §1, §2, §3

[7] = system: Escherichia coli; test: MIC on mass basis (Example V procedure); conditions: Escherichia coli, read-out: MIC
Description: as §1, §2, §3

[8] = system: Corynebacterium sp.; test: MIC on mass basis (Example V procedure)
Description: as §1

[9] = system: Streptococcus faecalis (Group D); test: MIC on mass basis (Example V procedure); conditions: Enterococcus faecalis, read-out: MIC
Description: as §1

[10] = system: Streptococcus pyogenes; test: MIC on mass basis (Example V procedure)
Description: as §1

[11] = Table 6, range over the organisms of Table 5, NI = no inhibition
[12] = Table 12, Saccharomyces cerevisiae
[13] = Table 12, Nocardia asteroides, read-out: MIC
[14] = Table 12, Pseudomonas aeruginosa
[15] = Table 12, Staphylococcus aureus
[16] = Table 12, Corynebacterium sp., read-out: MIC
[17] = Table 12, Streptococcus faecalis (Group D)
[18] = Table 12, Streptococcus pyogenes, read-out: MIC

SMILES	MIC [2, 12] [µg/mL]	MIC [3, 13] [µg/mL]	MIC [4, 14] [µg/mL]	MIC ([5]; Table 12, Candida albicans) [µg/mL]	MIC [6, 15] [µg/mL]	MIC ([7]; Table 12, Eschericia coli) [µg/mL]	MIC [8, 16] [µg/mL]	MIC [9, 17] [µg/mL]	MIC [10, 18] [µg/mL]	further results
CCCCCCCCCC(=O)OCC(O)CO (centres unmarked) [1-mono-caprin]	–	–	–	–	–	–	–	–	–	MIC [1, 11]: 100 to 2000 µM (≈ 24.6 to 493 µg/mL)
Cc1cc(C(C)(C)C)c(O)c(C(C)(C)C)c1 [BHT, 2,6-di-tert-butyl-4-methylphenol]	> 5000	1000	> 5000	> 5000	> 5000	> 5000	100 (≈ 0.454 mM)	> 5000	1000 (≈ 4.54 mM)	MIC ([2]; Table 16, Saccharomyces cerevisiae, no unit in table): > 1000 µg/mL; MIC ([3]; Table 16, Nocardia asteroides, no unit in table): 1,000; MIC ([4]; Table 16, Pseudomonas aeruginosa, no unit in table): > 1000 µg/mL; MIC ([5]; Table 16, Candida albicans, no unit in table): > 1000 µg/mL; MIC ([6]; Table 16, Staphylococcus aureus, no unit in table): > 1000 µg/mL; MIC ([7]; Table 16, Escherichia coli, no unit in table (Example 5 procedure, mass basis)): > 1000 µg/mL; MIC ([8]; Table 16, Corynebacterium sp., no unit in table): 100; MIC ([9]; Table 16, Streptococcus faecalis (Group D), no unit in table): > 1000 µg/mL; MIC ([10]; Table 16, Streptococcus pyogenes, no unit in table): 1,000
CCCCCCCCCC(=O)O [Capric acid, capric acid]	–	–	–	–	–	–	–	–	–	MIC ([1]; Table 2, range over the organisms of Table 1): 1450 to 5800 µM (≈ 250 to 999 µg/mL); MIC range [1, 11]: 1.45 - 5.8 μ/Mol/ml
CCCCCC(=O)O [Caproic, caproic acid]	–	–	–	–	–	–	–	–	–	Inhibition in words ([1]; saturated acids, Table 1): not inhibitory at all
CCCCCCCCCCCCN [Dodecylamine HCl]	–	–	–	–	–	–	–	–	–	MIC [1]: 28 to 112 µM

Continued, in another order:

MIC [2, 12] [µg/mL]	MIC [3, 13] [µg/mL]	MIC [4, 14] [µg/mL]	MIC ([5]; Table 12, Candida albicans) [µg/mL]	MIC [6, 15] [µg/mL]	MIC ([7]; Table 12, Eschericia coli) [µg/mL]	MIC [8, 16] [µg/mL]	MIC [9, 17] [µg/mL]	MIC [10, 18] [µg/mL]	SMILES	further results
> 5000	500	> 5000	> 5000	5000	> 5000	1000 (≈ 4.27 mM)	2500 (≈ 10.7 mM)	1000 (≈ 4.27 mM)	CCc1cc(C(C)(C)C)c(O)c(C(C)(C)C)c1 [C2, 2,6-di-tert-butyl-4-ethylphenol]	–
> 5000	500	> 5000	> 5000	> 5000	> 5000	1000 (≈ 3.81 mM)	> 5000	5000 (≈ 19.1 mM)	CCCCc1cc(C(C)(C)C)c(O)c(C(C)(C)C)c1 [C4, 2,6-di-tert-4-butylphenol]	–
> 5000	5000	> 5000	> 5000	> 5000	> 5000	5000 (≈ 17.2 mM)	> 5000	> 5000	CCCCCCc1cc(C(C)(C)C)c(O)c(C(C)(C)C)c1 [C6, 2,6-di-tert-4-hexylphenol]	–
> 5000	5000	> 5000	> 5000	> 5000	> 5000	5000 (≈ 15.7 mM)	> 5000	> 5000	CCCCCCCCc1cc(C(C)(C)C)c(O)c(C(C)(C)C)c1 [C8, 2,6-di-tert-4-octylphenol]	–
> 5000	5000	> 5000	> 5000	> 5000	> 5000	5000 (≈ 14.4 mM)	> 5000	> 5000	CCCCCCCCCCc1cc(C(C)(C)C)c(O)c(C(C)(C)C)c1 [C10, 2,6-di-tert-4-decylphenol]	–
